Test results as given in patent US11344537B2 (BIOVERSYS AG, priority 2019, dated 2022).
Converted amounts (≈) assume the structure as drawn. Like-named read-outs stand apart in the source and are kept apart here.

Columns and labels:
[1] = HIV-infected patients, 300 mg/day (Hafner et al, 1998); cited from earlier work
[2] = Preliminary assessment of solubility in solvents (24 h); type: physicochemical; conditions: thermodynamic from solid, 24 h stirring at room temperature, read-out: Solubility (mg/ml) at 24 h
Description: After 24 h stirring at room temperature, samples were centrifuged, and the supernatant analyzed by HPLC.

[3] = in Ethanol (literature data); cited from earlier work
[4] = Dissolution of rifabutin in DMI or DMI/water with acid and dilution with aqueous solutions; type: physicochemical; conditions: in DMI without water or acid; longer than plausibly acceptable
[5] = human, in vivo, cited from earlier work

For `CO[C@H]1/C=C/O[C@@]2(C)Oc3c(C)c(O)c4c(c3C2=O)C2=NC3(CCN(CC(C)C)CC3)NC2=C(NC(=O)/C(C)=C\C=C\[C@H](C)[C@H](O)[C@@H](C)[C@@H](O)[C@@H](C)[C@H](OC(C)=O)[C@@H]1C)C4=O` [rifabutin], the “AUC at steady state” value [1] is listed as 8600 ± 8200 ng·h/mL, the “Cmax at steady state” value [1] is listed as 590 ± 330 ng/mL and the solubility at 24 h ([2]; aqueous buffer, in Acetate buffer pH 4 (USP)) is listed as 11.3 mg/mL (≈ 13300 µM). For the same compound, the solubility at 24 h ([2]; aqueous buffer, in Borate buffer pH 10 (USP)) was 1.9 mg/mL (≈ 2240 µM), the solubility at 24 h ([2]; aqueous buffer, in Phosphate buffer pH 6 (USP)) was 0.3 mg/mL (≈ 354 µM) and the solubility at 24 h ([2]; aqueous buffer, in Phosphate buffer pH 8 (USP)) was 0.2 mg/mL (≈ 236 µM). For the same compound, the solubility at 24 h ([2]; aqueous with cosolvent or surfactant or cyclodextrin, in Povidone K12 (5% w/w in water)) was 0.5 mg/mL (≈ 590 µM), the solubility at 24 h ([2]; aqueous with cosolvent or surfactant or cyclodextrin, in Tween 80 (1% w/w in water)) was 1.3 mg/mL (≈ 1530 µM) and the solubility at 24 h ([2]; organic solvent or mixture, in Dimethyl isosorbide (DMI)) was no less than 245 mg/mL. It also gave a solubility at 24 h ([2]; organic solvent or mixture, in Dimethylacetamide (DMA)) of no less than 204 mg/mL, a solubility at 24 h ([2]; organic solvent or mixture, in Glycerol) of 0.4 mg/mL (≈ 472 µM) and a solubility at 24 h ([2]; organic solvent or mixture, in N-Methyl-2-pyrrolidone (NMP)) of no less than 190 mg/mL. The solubility at 24 h ([2]; organic solvent or mixture, in Polyethylene glycol 400 (PEG400)) was no less than 110 mg/mL, the solubility at 24 h ([2]; organic solvent or mixture, in Propylene glycol) was no less than 92 mg/mL and the solubility at 24 h ([2]; organic solvent or mixture, in Transcutol HP) was no less than 206 mg/mL. The solubility at 24 h ([2]; saline or isotonic, in Saline 0.9%) was 0.3 mg/mL (≈ 354 µM), the “Solubility (mg/ml) at 24 h” value [3] was 30 mg/mL (≈ 35400 µM) and the “Dissolution of rifabutin in DMI, concentration” value [4] was greater than 250 mg/mL. The “time at which Cmax is attained after oral administration” value ([5]; 300 mg) was “approximately 3 hours”, the “mean Cmax” value ([5]; po, 300 mg) was 375 ng/mL and the Cmax ([5]; po, 600 mg) was 400 to 700 ng/mL. The oral dose absorbed [5] was “at least 53%”.
